Measurements taken from patent US20100279997A1, “ANALGESIC THAT BINDS FILAMIN A” (priority 2009, published 2010).

Target: T1, μ opiate receptor (MOR) (Rattus norvegicus, UniProt P33535)
T1 construct: from tissue; host or cells: striatal tissue (membrane preparation)
Assay: MOR agonist activity, [35S]GTPγS binding assay using striatal membranes
Format: biochemical
Details: for [35S]GTPγS binding to Gαo, FLNA-binding compound as agonist 0.1 μM: 0.1 μM compound; for [35S]GTPγS binding to Gαo, FLNA-binding compound as agonist 0.1 μM / [35S]GTPγS binding to Gαo, FLNA-binding compound as agonist 1 μM: striatal membranes; for [35S]GTPγS binding to Gαo, FLNA-binding compound as agonist 1 μM + BFNA: 1 μM compound + 1 μM β-funaltrexamine; for [35S]GTPγS binding to Gαo, FLNA-binding compound as agonist 1 μM: 1 μM compound
Procedure: To assess the μ opiate receptor (MOR) agonist activity of positive compounds from the FLNA screening, compounds were tested in a [^35S]GTPγS binding assay using striatal membranes.
Striatal tissue was homogenized in 10 volumes of ice cold 25 mM HEPES buffer, pH 7.4, which contained 1 mM EGTA, 100 mM sucrose, 50 μg/ml leupeptin, 0.04 mM PMSF, 2 μg/ml soybean trypsin inhibitor and 0.2% 2-mercaptoethanol. The homogenates were centrifuged at 800×g for 5 minutes and the supernatants were centrifuged at 49,000×g for 20 minutes. The resulting pellets were suspended in 10 volume of reaction buffer, which contained 25 mM HEPES, pH 7.5, 100 mM NaCl, 50 μg/ml leupeptin, 2 μg/ml soybean trypsin inhibitor, 0.04 mM PMSF and 0.02% […].
The resultant striatal membrane preparation (200 μg) was admixed and maintained (incubated) at 30° C. for 5 minutes in reaction buffer as above that additionally contained 1 mM MgCl2 and 0.5 nM [^35S]GTPγS (0.1 μCi/assay, PerkinElmer Life and Analytical Sciences) in a total volume of 250 μl and continued for 5 minutes in the absence or presence of 0.1-10 μM of an assayed compound of interest. The reaction was terminated by dilution with 750 μl of ice-cold reaction buffer that contained 20 mM MgCl2 and 1 mM EGTA and immediate centrifugation at 16,000×g for 5 minutes.
The resulting pellet was solubilized by sonicating for 10 seconds in 0.5 ml of immunoprecipitation buffer containing 0.5% digitonin, 0.2% sodium cholate and 0.5% NP-40. Normal rabbit serum (1 μl) was added to 1 ml of lysate and incubated at 25° C. for 30 minutes. Nonspecific immune complexes were removed by incubation with 25 μl of protein A/G-conjugated agarose beads at 25° C. for 30 minutes followed by centrifugation at 5,000×g at 4° C. for 5 minutes. The supernatant was divided and separately incubated at 25° C. for 30 minutes with antibodies raised against Gao proteins (1:1,000 dilutions).
The immunocomplexes so formed were collected by incubation at 25° C. for 30 minutes with 40 μl of agarose-conjugated protein A/G beads and centrifugation at 5,000×g at 4° C. for 5 minutes. The pellet was washed and suspended in buffer containing 50 mM Tris-HCl, pH 8.0, and 1% NP-40. The radioactivity in the suspension was determined by liquid scintillation spectrometry. […] DAMGO (H-Tyr-D-Ala-Gly-N-MePhe-Gly-OH; 1 or 10 μM) was used as a positive control.

T1 sequence (P33535 whole entry): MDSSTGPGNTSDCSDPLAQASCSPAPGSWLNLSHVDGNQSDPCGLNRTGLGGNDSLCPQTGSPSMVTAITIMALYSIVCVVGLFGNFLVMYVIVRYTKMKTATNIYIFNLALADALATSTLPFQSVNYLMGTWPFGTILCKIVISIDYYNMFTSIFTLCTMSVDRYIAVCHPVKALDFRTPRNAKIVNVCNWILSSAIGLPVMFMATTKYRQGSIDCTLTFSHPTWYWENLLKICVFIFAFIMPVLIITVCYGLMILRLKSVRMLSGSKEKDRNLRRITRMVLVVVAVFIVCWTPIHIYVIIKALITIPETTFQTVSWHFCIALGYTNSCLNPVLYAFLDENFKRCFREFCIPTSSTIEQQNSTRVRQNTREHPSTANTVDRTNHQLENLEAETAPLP

Row | Compound | [35S]GTPγS binding to Gαo, FLNA-binding compound as agonist 0.1 μM [%] | [35S]GTPγS binding to Gαo, FLNA-binding compound as agonist 1 μM + BFNA [%] | [35S]GTPγS binding to Gαo, FLNA-binding compound as agonist 1 μM [%]
1 | CC1CCC(C(C)C)C(OCC(O)CN2CCCC2)C1 (stereo not drawn) [Compound A0001] | 94.3 | 22.2 | 181.7
2 | CC1CCC(C(C)C)C(OCC(O)CN2CCSC2)C1 (stereo not drawn) [Compound A0002] | 155.6 | 6.5 | 199.4
3 | CC1CCC(C(C)C)C(OCC(O)CN2CCSCC2)C1 (stereo not drawn) [Compound A0003] | 176.8 | 17.1 | 276.0
4 | CC1CCC(C(C)C)C(OCC(O)CN2CCOCC2)C1 (stereo not drawn) [Compound A0004] | 97.4 | 86.0 | 144.2
5 | CC1CCC(C(C)C)C(OCC(O)CN2CCCCC2)C1 (stereo not drawn) [Compound A0005] | 179.7 | 23.5 | 239.2
6 | CC1CCN(CC(O)COC2CC(C)CCC2C(C)C)CC1 (stereo not drawn) [Compound A0006] | 170.0 | 18.2 | 190.9
7 | CC1CCC(C(C)C)C(OCC(O)CN2CCCCC2C)C1 (stereo not drawn) [Compound A0007] | 102.0 | 40.4 | 221.9
8 | CC1CCC(C(C)C)C(OCC(O)CN2CC(C)CC(C)C2)C1 (stereo not drawn) [Compound A0008] | 163.8 | 133.9 | 235.0
9 | CC1CCC(C(C)C)C(OCC(O)CN2CCN(C)CC2)C1 (stereo not drawn) [Compound A0009] | 70.2 | 93.9 | 126.4
10 | CC1CCC(C(C)C)C(OCC(O)CN2CCCN(C)CC2)C1 (stereo not drawn) [Compound A0010] | 277.2 | 190.3 | 319.0
11 | COc1ccc(N2CCN(CC(O)COC3CC(C)CCC3C(C)C)CC2)c(OC)c1 (stereo not drawn) [Compound A0012] | 149.3 | 122.4 | 185.7
12 | CC1CCC(C(C)C)C(OCC(O)CN2CCCCCC2)C1 (stereo not drawn) [Compound A0013] | 102.1 | 86.1 | 164.8
13 | CC1CCC(C(C)C)C(OCC(O)CN2CCCCCCC2)C1 (stereo not drawn) [Compound A0014] | 147.0 | 140.8 | 174.9
14 | CC1CCC(C(C)C)C(OCC(O)CN2CCC2)C1 (stereo not drawn) [Compound A0015] | 110.9 | 62.5 | 150.1
15 | CC1CN(CC(O)COC2CCCCC2)CC(C)O1 (stereo not drawn) [Compound A0017] | 161.9 | 65.2 | 246.0
16 | CC1CCC(C(C)C)C(OCC(O)CN2CCN(CCc3ccccc3)CC2)C1 (stereo not drawn) [Compound A0020] | 168.6 | 67.4 | 217.4
